Reference: the supplement of paper PMC10307832

How the values were obtained:
Test in all cases: relative viability (nuclei count vs DMSO), 5 days (fraction); higher = more cells survive
[1] = compound: CCc1c2c(nc3ccc(OC(=O)N4CCC(N5CCCCC5)CC4)cc13)-c1cc3c(c(=O)n1C2)COC(=O)[C@]3(O)CC [Irinotecan] + CS(=O)(=O)CCNCc1ccc(-c2ccc3ncnc(Nc4ccc(OCc5cccc(F)c5)c(Cl)c4)c3c2)o1 [Lapatinib] (partner 2 µM)
Outline: (§1)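 Cells from lung cancer lines were seeded into 1536-well plates and, one day later, dosed by pin tool. Treatments were either a single drug or a fixed dose of an anchor drug with five library-drug doses (not always all listed) in √10 steps. After 5 days, nuclei were stained in a one-step fixation (final 0.05% Triton X-100, 1% formaldehyde, 1 ug/ml Hoechst) and counted on 4× images, and relative viability is the treated-to-vehicle nuclei ratio, as the median of duplicate plates.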

[2] = compound: CC[C@@H](C)CNCC(=O)N1CCC2=C([C@@H]1COC3=CC=CC(=C3)C)C=CS2 [RU-SKI 43] + C[C@@H](Oc1cc(-c2cnn(C3CCNCC3)c2)cnc1N)c1c(Cl)ccc(F)c1Cl [Crizotinib] (partner 1 µM)
Outline: as §1

[3] = compound: Cn1cc(-c2cnc3ccc4ccc(CS(=O)(=O)NCc5ccccn5)cc4c(=O)c3c2)cn1 [MK-8033] + C[C@]1(O)C[C@@H](c2nc(-c3ccc4ccc(-c5ccccc5)nc4c3)c3c(N)nccn32)C1 [Linsitinib] (partner 1 µM)
Outline: as §1

[4] = compound: Cn1cc(-c2cnc3ccc4ccc(CS(=O)(=O)NCc5ccccn5)cc4c(=O)c3c2)cn1 [MK-8033] + Cc1cc(Nc2cc(N3CCN(C)CC3)nc(Sc3ccc(NC(=O)C4CC4)cc3)n2)n[nH]1 [Tozasertib] (partner 0.1 µM)
Outline: as §1

Cell Line	relative viability ([1]; first compound 2 µM)	relative viability ([1]; first compound 6.325 µM)	relative viability ([1]; first compound 20 µM)	relative viability ([2]; first compound 0.1 µM)	relative viability ([2]; first compound 0.3162 µM)	relative viability ([2]; first compound 1 µM)	relative viability ([2]; first compound 3.162 µM)	relative viability ([2]; first compound 10 µM)	relative viability ([3]; first compound 0.02 µM)	relative viability ([3]; first compound 0.06325 µM)	relative viability ([3]; first compound 0.2 µM)	relative viability ([3]; first compound 0.6325 µM)	relative viability ([3]; first compound 2 µM)	relative viability ([4]; first compound 0.02 µM)	relative viability ([4]; first compound 0.06325 µM)	relative viability ([4]; first compound 0.2 µM)	relative viability ([4]; first compound 0.6325 µM)	relative viability ([4]; first compound 2 µM)	relative viability ([1]; first compound 0.6325 µM)
201T	1.03	0.738	0.322	1.02	0.991	1.06	1.06	0.992	1.13	0.916	0.979	1	1.02	0.864	0.899	0.82	0.909	0.86	
A549	0.529	0.112	0.0497	0.775	1.12	0.847	0.71	0.52	0.627	0.571	0.52	0.515	0.581						0.723
A-427	0.752	0.221	0.179	0.832	0.809	0.904		0.651	1.09	1.21	1.02	1.17	1.1	0.225	0.213	0.209	0.17	0.194	
ABC-1	1.17	0.646	0.574	0.993	1.21	1.26	0.939	0.563	0.744	0.791	0.676	0.829	0.657	0.207	0.123	0.155	0.174	0.154	1.05
Calu-6	0.514	0.226	0.125	0.781	0.871	0.936	0.726	0.594	0.895	0.96	0.874	1.01	0.876						0.599
ChaGo-K-1				1.15	1.27	1.26	1.17	0.951						0.216	0.227	0.224	0.218	0.206	
EBC-1	0.172	0.21	0.15	0.19	0.183	0.202	0.176	0.155	0.938	0.68	0.895	1.05	0.167						0.219
IA-LM	0.26	0.134	0.0941	0.759	0.797	0.663	0.736	0.64	0.522	0.465	0.654	0.61	0.587						0.426
LCLC-103H				1.08	1.12	1.08	1.09	0.926	1.01	1.04	1.05	1.11	1.17	0.489	0.556	0.438	0.55	0.461	
NCI-H441				0.662	0.655	0.637	0.686	0.641	0.505	0.401	0.54	0.551	0.53	0.578	0.568	0.62	0.605	0.475	
NCI-H522														0.606	0.477	0.53	0.496	0.599	
NCI-H1299	0.693	0.399	0.203	0.947	1.12	0.995	1.01	0.957	0.997	0.997	0.958	1.05	0.988						0.721
NCI-H1395	0.732	0.531	0.361						1.09	1.05	1.08	1.03	0.892	0.757	0.651	0.735	0.76	0.707	
NCI-H1563	1.05	0.954	0.441	0.789	0.773	0.825	0.836	0.734	1.26	1.15	1.13	1.23	1.19						0.674
NCI-H1623														0.396	0.358	0.428	0.43	0.498	
NCI-H1648															0.404	0.405		0.426	
NCI-H1650	0.51	0.401	0.152	0.968	0.916	0.971	0.991	0.67						0.395	0.325	0.395	0.352	0.276	0.386
NCI-H1703	1.32	0.39	0.158		0.734	0.61	0.594	0.381	0.552	0.762	0.556	0.89	0.446						0.953
NCI-H1792	0.949	0.202	0.11	1.09	1.53	1.21	1	0.921	0.468	0.528	0.527	0.454	0.523						0.92
NCI-H1793	0.547	0.253	0.235						0.915		0.775	0.858	0.782	0.332	0.325	0.34	0.416	0.23	
NCI-H2170	0.264	0.231	0.2	1.26	1.42	1.49	1.22	1.07						0.662	0.702	0.634	0.695	0.628	0.271
NCI-H2342														0.571	0.475	0.485	0.377	0.53	
SW 900														0.583	0.645	0.51	0.615	0.341	
